“Also recorded” adds a separate entry of the source.
Experiments:
[1] = system: iNOS; experiment: Nitrite accumulation in LPS-stimulated RAW 264.7 murine macrophages (Griess method); type: cell-based; conditions: for inhibition at 5 µM: Mus musculus, RAW264.7, read-out: Nitrite released, % inhibition, 5 μM (Table 2: 5 μm)
Description: Effects of NSAIDs on Nitrite Accumulation. […] The expression and activity of iNOS were monitored by estimation of the stable end-product: nitrites.
concentrations of NSAIDs for 2 h followed by addition of 100 ng/ml of LPS
After 16-18 h of incubation, the medium was used to estimate the
accumulation of nitrite by the Greiss method (Green et al., Anal Biochem.
(§1) The specific activity of iNOS was determined in cellfre
(§2) extracts at a given time period as described. The nitrite and specific
activity data are representative of mean ± SD value, as determined by
student t test, for 10 and 4 independent experiments, respectively. The p
values described are compared with LPSstimulated cells. […]

[2] = system: iNOS; experiment: iNOS expression in stimulated rat chondrosarcomas; type: cell-based; conditions: for effect on iNOS in rat chondrosarcomas: LPS/cytokine-stimulated, L-NMMA 500 μM, indomethacin 20 μM
Description: NSAIDs were tested in: (FIG. 5A) rat chondrosarcomas stimulated with LPS, and (FIG. 5B) unstimulated OA cartilage (n=3).

[3] = system: human iNOS; conditions: crude lysates; cited from earlier work
[4] = system: human chondrocyte iNOS; conditions: cited from earlier work
[5] = system: OA-NOS; experiment: Sensitivity of OA-NOS to agents (Table 3 comparison)
[6] = system: NOS; conditions: cited from earlier work
[7] = system: iNOS; experiment: iNOS protein expression, Western blot, LPS-treated RAW 264.7 cells; type: cell-based, murine; conditions: Mus musculus, RAW264.7, read-out: inhibition of iNOS protein expression, 5 μm (Table 2)
Description: Western Blot Analysis. Equal amounts of protein (50 μg) estimated by BCA reagent (Pierce, Rockford, Ill.) were loaded onto SDS-PAGE gels and stained to verify the concentrations of various protein fractions by examining the intensities of the protein bands on the gels. Western blot analysis was carried out from the same cell extracts. The Western-blotted membrane was probed with a specific anti-iNOS monoclonal antibody, as specified by Transduction Laboratories (Lexington, Ky.). The blots were developed using the ECL Western blot system (Amersham, Arlington Heights, Ill.). Quantitation of the bands was performed using a densitometer from Molecular Dynamics (Sunnyville, Calif.).
The protein expression data are represented as
ND = not done. NS = not significant.
A Western blot analysis of iNOS protein was carried out in cells treated with […] LPS in the presence and absence of NSAIDs for 16-18 h.

[8] = system: OA-NOS; experiment: Nitrite release by OA-affected articular cartilage, ex vivo organ culture; type: cell-based, human
[9] = system: iNOS; experiment: Specific activity of iNOS in cell-free extracts of RAW 264.7 cells exposed to drug during LPS induction; type: cell-based, murine; conditions: Mus musculus, RAW264.7, 16 h, read-out: Specific activity, % inhibition, 5 μM (Table 2: 5 μm); cell-free extracts, 16 h
Description: Assays for iNOS in Cell-Free Extracts. […] The reaction mixture for iNOS assay (in cell-free extracts) consists of Tris […] (pH 7.8); BSA 1 mg/ml; DTT 1 mM; CaCl2, 2 mM; FAD 10 μM; BH4 10 μM; L-arginine 30 μM; NADPH 1 mM. The assay mixture for cNOS consists of Tris 50 mM (pH 7.8); L-arginine 50 μM; calmodulin 10 μg/ml; BH4 10 μM; CaCl2 2 mM; NADPH 100 μM. RAW 264.7 cells were induced with LPS in the presence and absence of NSAIDs for 16-18 h. […] Cells were re-pelleted at 4° C. and resuspended in Tris buffer (10 mM, pH 7.4) containing 1 mg/ml each chymostatin, antipain, leupeptin and pepstatin, 1 mM DTT and 1 mM PMSF. Cells were lysed in a Polytron PT 1200 homogenizer (Kinematica AG, Switzerland) after 3 cycles of rapid freeze-thawing. The lysate was centrifuged at 16,000 rpm for 60 min at 4° C., and the supernatants were used as cell-free extracts. […] After 20 min the assays were terminated by heating the reaction mixture at 90° C. for 5 min. The precipitates were removed by centrifuging at 15,000 rpm for 20 min. Ten microliters (≈50,000 cpm) of the supernatant was spotted on activated Avicel TLC plates (Analtech, Newark, Del.). The TLC plates were developed in a solvent system consisting of ethanol:water:ammonia (80:16:4). Quantitation of the spot for L-[^3 3H]-citrulline was performed by a Bioscan System 200 Imaging Scanner. A phosphoimager can also be used for such quantification.
as §1, §2

[10] = system: iNOS; experiment: In vitro iNOS catalytic activity in cell-free extracts preincubated with drug (L-[3H]-arginine to L-[3H]-citrulline); type: biochemical, murine; conditions: 20 min preincubation; for inhibition of iNOS catalytic activity in cell-free extracts (specific activity in in vitro assay): 1 mM
[11] = system: COX; conditions: cited from earlier work
[12] = rat adjuvant arthritis; cited from earlier work
[13] = systemic, rodent; cited from earlier work

CC(=O)Nc1ccc(O)cc1 [Acetaminophen, acetaminophen]
block of nitrite production ([1]; 60-120 μM, LPS-stimulated): 1±1% | effect on iNOS in rat chondrosarcomas [2]: no significant effect on iNOS expression

O=C(O)CN(CCN(CC(=O)O)CC(=O)O)CC(=O)O [EDTA, ethylenediaminetetraacetic acid]
human iNOS activity [3]: markedly reduces

C[C@]12CCC(=O)C=C1CC[C@@H]1[C@@H]2[C@@H](O)C[C@@]2(C)[C@H]1CC[C@]2(O)C(=O)CO [Hydrocortisone, hydrocortisone]
Nitrite released, % inhibition ([1]; 5 μM (Table 2: 5 μm), LPS 100 ng/ml, 16-18 h, 5 µM): 63.0% | inhibition at 5 µM ([1]; LPS 100 ng/ml, 16-18 h): > 60% | sensitivity of human chondrocyte iNOS [4]: lack of sensitivity | sensitivity of OA-NOS [5]: insensitive; also recorded: not sensitive | NOS expression in murine macrophages, endothelial cells and smooth muscles [6]: abolishes NOS expression | effect on iNOS in rat chondrosarcomas [2]: no significant effect on iNOS expression

COc1ccc2c(c1)c(CC(=O)O)c(C)n2C(=O)c1ccc(Cl)cc1 [Indomethacin, indomethacin]
extent of inhibition of nitrite accumulation [1]: not appreciably greater than that seen with 5 μM | inhibition at 5 µM ([1]; LPS 100 ng/ml, 16-18 h): ~7% | inhibition at 5 µM [7]: 0% | rank order of inhibition of spontaneous nitrite accumulation [8]: aspirin>indomethacin>sodium salicylate | inhibition at 5 µM [9]: 2% | inhibition of iNOS specific activity in in vitro assay ([10]; 5 μM): 0% | COX inhibition [11]: a potent inhibitor of COX

N=C(N)NCCC[C@H](N)C(=O)O [L-arginine]
NO biosynthesis, paw swelling and histopathological changes in ankle joints [12]: competitively reversed the effect of L-NMMA

CC(=O)n1ccnc1 [N-acetylimidazole]
inhibition of iNOS catalytic activity in cell-free extracts (specific activity in in vitro assay) [10]: ~ 74% | inhibition of iNOS catalytic activity in cell-free extracts (specific activity in in vitro assay) ([10]; listed as NAI): 74% | cyclooxygenase and peroxidase activity of COX [11]: inhibits both the cyclooxygenase and the peroxidase activity of COX

N=C(N)NN [aminoguanidine]
sensitivity of OA-NOS [5]: blocked; also recorded: shows sensitivity | effect on nitrite accumulation / NOS expression in OA cartilage [8]: inhibited

C[C@@H]1C[C@@H]([C@H](O)CC2CC(=O)NC(=O)C2)C(=O)[C@@H](C)C1 [cycloheximide]
sensitivity of OA-NOS [5]: blocked; also recorded: shows sensitivity | inhibition at 3.5 µM ([8]; Homo sapiens, 3.5 μM, 24 h, read-out: inhibition of nitrite accumulation): > 90% | inhibition at 17.5 µM ([8]; Homo sapiens, 17.5 μM, 24 h, read-out: inhibition of nitrite accumulation): > 90% | block of nitrite accumulation ([8]; cycloheximide 35 μM or PDTC 30 μM, 24 h, cytokine/endotoxin-induced and control cartilage): > 90%

C[C@@H]1C[C@H]2[C@@H]3CCC4=CC(=O)C=C[C@]4(C)[C@@]3(F)[C@@H](O)C[C@]2(C)[C@@]1(O)C(=O)CO [dexamethasone]
sensitivity of human chondrocyte iNOS [4]: lack of sensitivity | NOS expression in murine macrophages, endothelial cells and smooth muscles [6]: abolishes NOS expression

CC(C)Cc1ccc(C(C)C(=O)O)cc1 (stereo not drawn) [ibuprofen]
effect on iNOS in rat chondrosarcomas [2]: no significant effect on iNOS expression

NC(=O)N1C(=O)/C(=C(\O)c2cccs2)c2cc(Cl)ccc21 [tenidap]
inhibition of iNOS expression in rat chondrosarcomas ([2]; 72 h, added 1 h prior to cytokines): ~ 50% | effect on iNOS in rat chondrosarcomas [2]: significant inhibition of iNOS

TGF-β
sensitivity of OA-NOS [5]: insensitive; also recorded: not sensitive

TNF-α
arthritis morbidity / protection [13]: increase arthritis morbidity

— patent US5759836A, “Osteoarthritis-associated inducable isoform of nitric oxide synthetase” (priority 1995, dated 1998)
